Assays:
[1] = test system: mice; test: Light-Dark Box (LDB) test; type: in vivo; conditions: treated 30 min prior to testing
Experimental: Light-Dark Box (LDB) test, one of the unconditioned conflict tests, was used to investigate anxiolytic activity for several drugs such as Diazepam, Buspirone, etc (Allikmets et al, 1996; Belzung and Griebel, 2001; Cutler and Aitken, 1991; Leyre et al, 2004). In the present study, anxiolytic effect of azole compounds containing carbamoyl group represented by general structural formula (IX) was investigated on the LDB test in mice.
The animals were treated with compound 30 min prior to testing. The light-dark box consisted of a plexiglas apparatus measuring 45 cm×27 cm×27 cm (L×W×H), and was partitioned into two compartments, one fully opaque (dark compartment made of black plexiglas: 18 cm of total length of apparatus), while the second was lit from the compartment ceiling by a 100 W bulb. A small opening (7×7 cm) in the partition wall allowed free passage between the light and dark compartments.
Animals were placed at the lit compartment first, and the latency for escape into dark was checked and tested in the LDB for 5 min after the first entering into dark box. The animal, which the latency was over 2 min, was excluded from the test. Total time spent in the light compartment was counted. Movement of animal was checked through the TV-CCD camera by an experienced observer blind to the conditions of the experiment. A mouse whose four paws were in the new box was considered as having changed box.

[2] = test system: mice; test: Maximal ElectroShock (MES)-induced tonic seizure test; type: in vivo; conditions: Mus musculus; for ED50: read-out: Mice MES ED50 (mpk/peak time); for responders at 50 mg/kg: 4 h
Experimental: The “Maximal ElectroShock (MES)” test is a well-established pharmacological screening method for anticonvulsants against tonic-clonic seizures. The procedure employed in the MES test for anticonvulsants is as follows. The compounds to be tested were dissolved in 30% PEG400 and administered ip and po into animals. After the designated number of hours, maximal electroshock (50 mA, 60 Hz, 0.2 sec) was applied into animals via corneal electrodes using IITC Life Science model 11A Shocker. […] Median efficacy dose (ED50) levels were determined using three different dose levels with at least 8 mice in each group.

[3] = test system: mice; test: Forced swimming test (FST); type: in vivo; conditions: 30 min after dosing
Experimental: The “Forced swimming test (FST)” for antidepressant activity was also carried out. The procedure employed in the FST for antidepressant is as follows. The compounds to be tested were dissolved in 30% PEG400 and administered ip and po into animals. 30 min later, the immobility time during post 4 minutes of 6 minutes experiment time was measured.

[4] = test system: TBPS site of GABA-A receptor; test: GABA-A receptor (TBPS site) binding assay, [35S]TBPS; conditions: 100 μM; rat brain membranes, 2 nM [35S]TBPS
Experimental: Compounds of the inventions were tested for specific binding to TBPS (t-butyl bicyclophosphorothionate) site, an allosteric modulator site of GABA-A receptor as modified from G. Maksay and M. Simonyi, Eur. J. Pharmacol. 1985, 117(2), 275. and Gee, K. W. et al., J. Pharm. Exp. Ther. 1988, 246, 803.
This binding assay was performed using [35S] TBPS as radioligand in washed crude membrane homogenate from rat brains. Membrane preparations were carried out according to procedure described below. Sprague-Dawley (SD) rat weighting 230 g were killed by decapitation and their whole brains were rapidly removed and its cerebellums were excluded. The dissected brains were homogenized for 30 sec in 10 volumes (W/V) of ice-cold 0.32 M Sucrose and 50 mM Tris-citrate buffer pH 7.4 using glass homogenate. The homogenate was centrifuged at 2,000×g for 5 min at 4° C. And the supernatant re-centrifuged at 50,000×g for 20 min at 4° C. The supernatant was discarded and the resulting pellets were resuspended in 10 volumes (W/V) of ice-cold 50 mM Tris-citrate buffer pH 7.4. And then the suspended pellet was centrifuged at 50,000×g for 20 min at 4° C. The resulting pellets were suspended again in 32 volumes (W/V) of ice-cold 50 mM Tris-citrate buffer pH 7.4 with 0.05% Triton X-100 and then incubated in 37° C. for 60 min using a water bath. The incubated suspension was centrifuged at 50,000×g for 20 min at 4° C. Resuspending and centrifugation step of the remained pellets were repeated twice at the same manner and final pellets were resuspended in 10 volumes (W/V) of ice-cold 50 mM Tris-citrate buffer pH 7.4 to enable distribution of 2 ml aliquot in microcentrifuge tube, which were used immediately or kept at −80° C. for no more than 1 month before use.
For TBPS site binding assay, 50 μl of the tested compound were added to 100 μg membrane protein suspended in 0.15 ml of 50 mM Tris-citrate buffer with 200 mM NaCl pH 7.4 in presence of 2 nM of [35S] TBPS. The incubation of mixtures were carried out for 1.5 hours at 25° C. and then rapidly filtered over Whatman GF/C glass fiber filters, followed by twice 4.5 ml rinses with ice-cold incubation buffer. The filters were placed in counting vials and 4 ml scintillation solution. The vials were counted in a Beckman scintillation counter. Non-specific binding was determined in parallel incubations with 100 μM picrotoxin.
IC50 values for TBPS site binding assay was calculated using Graphpad PRISM v.3.00.

[5] = molecular target: T1, rat dopamine transporter (Rattus norvegicus, UniProt P23977); test: Dopamine transport (DAT) assay, [3H]dopamine uptake in CHO D8 cells; type: cell-based
T1 construct: expressed in transfected cells
T1 sequence (P23977 whole entry): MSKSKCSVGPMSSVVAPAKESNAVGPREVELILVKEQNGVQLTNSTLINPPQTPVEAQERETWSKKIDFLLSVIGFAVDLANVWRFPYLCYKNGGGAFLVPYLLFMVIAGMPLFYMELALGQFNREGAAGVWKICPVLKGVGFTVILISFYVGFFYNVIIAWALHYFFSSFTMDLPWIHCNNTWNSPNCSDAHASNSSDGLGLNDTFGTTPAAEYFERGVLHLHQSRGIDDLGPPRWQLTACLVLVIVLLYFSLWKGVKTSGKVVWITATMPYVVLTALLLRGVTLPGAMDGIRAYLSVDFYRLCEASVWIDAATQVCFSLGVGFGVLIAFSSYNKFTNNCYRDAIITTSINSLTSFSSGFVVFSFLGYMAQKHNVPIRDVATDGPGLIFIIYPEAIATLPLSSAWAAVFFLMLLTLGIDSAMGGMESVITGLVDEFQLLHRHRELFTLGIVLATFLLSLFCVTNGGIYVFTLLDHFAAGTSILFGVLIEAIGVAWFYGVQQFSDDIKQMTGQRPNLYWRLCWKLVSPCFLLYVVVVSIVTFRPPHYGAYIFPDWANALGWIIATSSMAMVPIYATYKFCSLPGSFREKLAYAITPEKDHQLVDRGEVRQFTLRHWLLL
Experimental: The “Dopamine Transport (DAT)” assay for dopamine uptake inhibition was also carried out. In order to test dopamine uptake inhibition, compounds of the inventions were assayed as modified from Zhaoping Liu et. al., Neuropharmacology, 2001, 41, 464.
Cultured CHO cells were […] with recombinant plasmid, DAT-pCDNA3, which encodes rat dopamine transporter. Several subclones were selected and assayed for [3H] dopamine uptake. The clone with the highest uptake, designated D8, was chosen for Dopamine transport assay of compounds.
For the Dopamine transport assay, D8 cells were cultured in 48-well plate using RMPI1640 containing 10% FCS. D8 cells, grown to 60,000 cells per well, each wells were rinsed once with phosphate buffered saline (PBS) and pre-incubated in 100 μl Hank's balanced salt solution (HBSS) for 10 min at room temperature. The buffer was then changed to 50 μl HBSS containing the tested compounds and 350 μl HBSS containing reaction components ([3H] dopamine, ascorbic acid and pargyline). Final concentrations of [3H] dopamine, ascorbic acid and pargyline are 151 nM, 100 μM and 100 μM, respectively. The cells were incubated for 20 min at room temperature and the reaction was terminated by aspiration of the buffer and washed three times with 1 ml cold BS. The cells were then solubilized in 2N NaOH and an aliquot was measured by liquid scintillation counting to quantify the uptake of [3H] dopamine.

[6] = test system: clonic seizures; conditions: in vivo; cited from earlier work
[7] = test system: mice and rats; conditions: cited from earlier work
[8] = test system: mice; conditions: probably by inhibition of cytochrome P-450; cited from earlier work
[9] = test system: mice; test: Pentylenetetrazol (PTZ)-induced clonic seizure test; type: in vivo; conditions: Mus musculus, sc, read-out: Mice PTZ ED50 (mpk/peak time)
Experimental: The “Pentylenetetrazol (PTZ)” test for anticonvulsant and antianxiety activity was also carried out.
The procedure employed in the PTZ test is as follows. The compounds to be tested were dissolved in 30% PEG400 and administered ip and po into animals. After the designated number of hours, each animal was injected subcutaneously with 100 mg/kg of PTZ (CD97 dose) and observed for up to 30 minutes for the presence or absence of clonic spasms over 5 seconds. Median efficacy dose (ED50) levels were determined using three different dose levels with 8 mice in each group.

[10] = read-out: Mice MES Protection % (mpk/peak time)

NC(=O)O[C@H](Cn1nccn1)c1ccc(Cl)c(Cl)c1 [Example 87, Carbamic acid (S)-1-(3,4-dichloro-phenyl)-2-[1,2,3]triazol-2-yl-ethyl ester]
Mice LDB % Duration in the light box [1]: N.S
ED50 ([2]; 0.5 h): 14.8 mg/kg
Mice FST Reduction of immobility % ([3]; dose not given): 92.5%
TBPS Inhibition % (At 100 μM) [4]: 50.1%
inhibition at 10 µM [5]: 93.8%

OC(Cn1ccnc1)c1ccc(CCc2ccccc2)cc1 (stereo not drawn) [denzimol, α-(4-(2-phenylethyl)phenyl)-1H-imidazole-1-ethanol]
antagonism of clonic seizures induced by pentylenetetrazole, strychnine, bicuculline, or picrotoxin [6]: do not antagonize
protection against maximal electroshock- or pentylenetetrazole-induced tonic seizures [7]: protect
hexobarbital-induced sleeping time [8]: potentiated

NC(=O)OC(Cn1ncnn1)c1ccc(Cl)cc1Cl (stereo not drawn) [Example 30, Carbamic acid 1-(2,4-dichloro-phenyl)-2-tetrazol-2-yl-ethyl ester]
Mice LDB % Duration in the light box ([1]; dose not given): 143.6% ^
ED50 ([2]; 1 h): 14.9 mg/kg
Mice FST Reduction of immobility % [3]: N.S
inhibition at 10 µM [5]: 15.1%
ED50 ([9]; 1 h): 12.2 mg/kg

NC(=O)O[C@H](Cn1ncnn1)c1ccccc1Cl [Example 21, Carbamic acid (S)-1-(2-chloro-phenyl)-2-tetrazol-2-yl-ethyl ester]
ED50 ([2]; 0.5 h): 14.2 mg/kg
inhibition at 10 µM [5]: 20.9%
ED50 ([9]; 0.5 h): 28.8 mg/kg

NC(=O)OC(Cn1nccn1)c1ccc(Cl)cc1Cl (stereo not drawn) [Example 29, Carbamic acid 1-(2,4-dichloro-phenyl)-2-[1,2,3]triazol-2-yl-ethyl ester]
Mice LDB % Duration in the light box ([1]; dose not given): 288.5% ^
ED50 ([2]; 1 h): 14.4 mg/kg
Mice FST Reduction of immobility % [3]: N.S
inhibition at 10 µM [5]: -27.5%
ED50 ([9]; 1 h): 16.8 mg/kg

NC(=O)OC(Cn1ncnn1)c1ccc(Cl)c(Cl)c1 (stereo not drawn) [Example 26, Carbamic acid 1-(3,4-dichloro-phenyl)-2-tetrazol-2-yl-ethyl ester]
responders at 50 mg/kg [2, 10]: 100%
Mice FST Reduction of immobility % ([3]; dose not given): 97.5%
inhibition at 10 µM [5]: 88.2%

NC(=O)OC(Cn1nccn1)c1ccccc1 (stereo not drawn) [Example 7, Carbamic acid 1-phenyl-2-[1,2,3]triazol-2-yl-ethyl ester]
ED50 ([2]; 0.5 h): 26.2 mg/kg
inhibition at 10 µM [5]: -21.1%

NC(=O)OC(Cn1ncnn1)c1ccccc1 (stereo not drawn) [Example 4, Carbamic acid 1-phenyl-2-tetrazol-2-yl-ethyl ester]
responders at 30 mg/kg ([2]; 0.5 h, read-out: Mice MES Protection % (mpk/peak time)): 66.7%
Mice FST Reduction of immobility % ([3]; dose not given): 40.3%
inhibition at 10 µM [5]: 41.5%

NC(=O)O[C@@H](Cn1ncnn1)c1ccccc1Cl [Example 20, Carbamic acid (R)-1-(2-chloro-phenyl)-2-tetrazol-2-yl-ethyl ester]
ED50 ([2]; 0.5 h): 4.24 mg/kg
Mice FST Reduction of immobility % ([3]; dose not given): −24.3%
inhibition at 10 µM [5]: 7.1%
ED50 ([9]; 0.5 h): 3.76 mg/kg

NC(=O)OC(Cn1nccn1)c1ccccc1Cl (stereo not drawn) [Example 1, Carbamic acid 1-(2-chloro-phenyl)-2-[1,2,3]triazol-2-yl-ethyl ester]
ED50 ([2]; 0.5 h): 10.7 mg/kg
Mice FST Reduction of immobility % [3]: N.S
TBPS Inhibition % (At 100 μM) [4]: 18.3%
inhibition at 10 µM [5]: 47.3%
ED50 ([9]; 0.5 h): 24.5 mg/kg

O=C(Cn1ccnc1)c1ccc2ccccc2c1 [Nafimidone, 2-(1H-imidazole-1-yl)-1-(2-naphthalenyl)ethanone]
antagonism of clonic seizures induced by pentylenetetrazole, strychnine, bicuculline, or picrotoxin [6]: do not antagonize
protection against maximal electroshock- or pentylenetetrazole-induced tonic seizures [7]: protect
hexobarbital-induced sleeping time [8]: potentiated

NC(=O)OC(Cn1nccn1)c1ccc(Cl)c(Cl)c1 (stereo not drawn) [Example 25, Carbamic acid 1-(3,4-dichloro-phenyl)-2-[1,2,3]triazol-2-yl-ethyl ester]
responders at 50 mg/kg [2, 10]: 100%
Mice FST Reduction of immobility % ([3]; dose not given): 94.1%
inhibition at 10 µM [5]: 70.7%

NC(=O)O[C@H](Cn1ncnn1)c1ccc(Cl)c(Cl)c1 [Example 96, Carbamic acid (S)-1-(3,4-dichloro-phenyl)-2-tetrazol-2-yl-ethyl ester]
ED50 ([2]; 0.5 h): 10.4 mg/kg
Mice FST Reduction of immobility % ([3]; dose not given): 95.8%
inhibition at 10 µM [5]: 98.4%

CNC(=O)O[C@@H](Cn1ncnn1)c1ccccc1Cl [Example 45, Methyl-carbamic acid (R)-1-(2-chloro-phenyl)-2-tetrazol-2-yl-ethyl ester]
Mice LDB % Duration in the light box [1]: N.S
ED50 ([2]; 0.5 h): 4.88 mg/kg
inhibition at 10 µM [5]: -58.1%
ED50 ([9]; 0.5 h): 5.81 mg/kg
